# Experimental data from article PMC7827406, “Structure–Activity Relationship (SAR) Study of Spautin-1 to Entail the Discovery of Novel NEK4 Inhibitors” (International Journal of Molecular Sciences, 2021).
# Where two headings read alike, the source gives them in different places.
# Key:
# Test in all cases: biochemical
# Set-up in all cases: Eurofins KinaseProfiler full panel at Km ATP, residual kinase activity (%) relative to DMSO
# MAPKAP-K2(h) = biological target: T1, MAPKAP-K2(h) (Homo sapiens, UniProt P49137)
# T1 construct: gene MAPKAPK2
# T1 sequence (P49137 whole entry): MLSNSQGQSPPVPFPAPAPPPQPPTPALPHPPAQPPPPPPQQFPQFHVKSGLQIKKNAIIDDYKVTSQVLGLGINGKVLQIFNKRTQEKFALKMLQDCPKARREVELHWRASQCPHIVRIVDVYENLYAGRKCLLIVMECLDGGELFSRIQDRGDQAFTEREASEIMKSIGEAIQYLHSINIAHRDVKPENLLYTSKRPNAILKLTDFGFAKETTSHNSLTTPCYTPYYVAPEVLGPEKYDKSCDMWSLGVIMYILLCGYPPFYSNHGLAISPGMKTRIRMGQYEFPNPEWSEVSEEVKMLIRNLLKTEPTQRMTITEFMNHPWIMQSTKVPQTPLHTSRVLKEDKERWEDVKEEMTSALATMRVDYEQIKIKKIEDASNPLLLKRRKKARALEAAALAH
# In short: (§1)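 Two 10 µM single-concentration screens were run: a competition-binding screen, in which DNA-tagged kinase bound to immobilized ligands was quantified by qPCR, and a radiometric activity panel at Km ATP. Each is expressed as residual kinase activity (%).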
# EGFR(T790M,L858R)(h) = EGFR(T790M,L858R)(h) (Homo sapiens, UniProt P00533, L858R/T790M)
# Chain of EGFR(T790M,L858R)(h) (P00533 whole entry T790M/L858R): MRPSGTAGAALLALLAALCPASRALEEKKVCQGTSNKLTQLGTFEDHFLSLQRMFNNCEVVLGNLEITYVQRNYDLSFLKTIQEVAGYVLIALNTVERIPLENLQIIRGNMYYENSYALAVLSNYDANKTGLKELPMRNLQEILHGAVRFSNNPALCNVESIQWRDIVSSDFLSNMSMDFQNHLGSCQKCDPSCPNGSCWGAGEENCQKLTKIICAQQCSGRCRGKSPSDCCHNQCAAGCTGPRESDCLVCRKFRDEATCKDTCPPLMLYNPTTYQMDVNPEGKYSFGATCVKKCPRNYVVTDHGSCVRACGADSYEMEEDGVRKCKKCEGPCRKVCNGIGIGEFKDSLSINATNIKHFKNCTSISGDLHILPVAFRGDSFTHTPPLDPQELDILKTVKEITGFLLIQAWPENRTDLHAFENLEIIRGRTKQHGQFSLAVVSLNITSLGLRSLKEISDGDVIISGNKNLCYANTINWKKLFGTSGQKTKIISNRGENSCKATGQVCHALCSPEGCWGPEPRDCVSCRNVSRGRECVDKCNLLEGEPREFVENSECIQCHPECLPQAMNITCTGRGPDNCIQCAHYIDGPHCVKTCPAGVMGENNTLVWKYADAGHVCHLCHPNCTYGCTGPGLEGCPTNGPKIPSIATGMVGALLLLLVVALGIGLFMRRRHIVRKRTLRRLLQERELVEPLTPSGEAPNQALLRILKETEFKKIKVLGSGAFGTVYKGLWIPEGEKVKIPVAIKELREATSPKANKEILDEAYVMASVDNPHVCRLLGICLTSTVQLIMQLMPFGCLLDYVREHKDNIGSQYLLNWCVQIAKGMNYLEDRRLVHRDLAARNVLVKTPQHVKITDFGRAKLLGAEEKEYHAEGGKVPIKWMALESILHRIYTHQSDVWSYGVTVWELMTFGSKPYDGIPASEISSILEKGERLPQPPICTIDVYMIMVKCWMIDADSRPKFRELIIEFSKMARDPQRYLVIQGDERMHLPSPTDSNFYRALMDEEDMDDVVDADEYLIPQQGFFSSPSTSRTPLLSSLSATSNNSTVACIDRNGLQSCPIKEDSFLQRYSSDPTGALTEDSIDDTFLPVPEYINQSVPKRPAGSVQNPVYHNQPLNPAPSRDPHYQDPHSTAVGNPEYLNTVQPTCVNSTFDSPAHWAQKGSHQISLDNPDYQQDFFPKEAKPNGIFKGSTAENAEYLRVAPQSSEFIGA
# In short: as §1
# ULK3(h) = biological target: T2, ULK3(h) (Homo sapiens, UniProt Q6PHR2)
# T2 sequence (Q6PHR2 1-472): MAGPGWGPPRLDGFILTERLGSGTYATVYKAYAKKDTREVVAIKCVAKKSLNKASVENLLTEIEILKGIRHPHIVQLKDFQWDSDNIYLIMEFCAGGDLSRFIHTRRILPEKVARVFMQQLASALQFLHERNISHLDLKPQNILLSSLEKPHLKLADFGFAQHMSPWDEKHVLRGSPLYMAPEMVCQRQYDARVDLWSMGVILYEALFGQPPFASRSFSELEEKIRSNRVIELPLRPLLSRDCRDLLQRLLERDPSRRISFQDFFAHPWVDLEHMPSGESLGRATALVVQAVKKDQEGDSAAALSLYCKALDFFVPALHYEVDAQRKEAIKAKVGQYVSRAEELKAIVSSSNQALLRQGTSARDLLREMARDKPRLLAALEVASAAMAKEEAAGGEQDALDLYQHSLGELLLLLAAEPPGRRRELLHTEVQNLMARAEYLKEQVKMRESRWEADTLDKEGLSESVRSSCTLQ
# In short: as §1
# EGFR(L858R)(h) = EGFR(L858R)(h) (Homo sapiens, UniProt P00533, L858R)
# Chain of EGFR(L858R)(h) (P00533 whole entry L858R): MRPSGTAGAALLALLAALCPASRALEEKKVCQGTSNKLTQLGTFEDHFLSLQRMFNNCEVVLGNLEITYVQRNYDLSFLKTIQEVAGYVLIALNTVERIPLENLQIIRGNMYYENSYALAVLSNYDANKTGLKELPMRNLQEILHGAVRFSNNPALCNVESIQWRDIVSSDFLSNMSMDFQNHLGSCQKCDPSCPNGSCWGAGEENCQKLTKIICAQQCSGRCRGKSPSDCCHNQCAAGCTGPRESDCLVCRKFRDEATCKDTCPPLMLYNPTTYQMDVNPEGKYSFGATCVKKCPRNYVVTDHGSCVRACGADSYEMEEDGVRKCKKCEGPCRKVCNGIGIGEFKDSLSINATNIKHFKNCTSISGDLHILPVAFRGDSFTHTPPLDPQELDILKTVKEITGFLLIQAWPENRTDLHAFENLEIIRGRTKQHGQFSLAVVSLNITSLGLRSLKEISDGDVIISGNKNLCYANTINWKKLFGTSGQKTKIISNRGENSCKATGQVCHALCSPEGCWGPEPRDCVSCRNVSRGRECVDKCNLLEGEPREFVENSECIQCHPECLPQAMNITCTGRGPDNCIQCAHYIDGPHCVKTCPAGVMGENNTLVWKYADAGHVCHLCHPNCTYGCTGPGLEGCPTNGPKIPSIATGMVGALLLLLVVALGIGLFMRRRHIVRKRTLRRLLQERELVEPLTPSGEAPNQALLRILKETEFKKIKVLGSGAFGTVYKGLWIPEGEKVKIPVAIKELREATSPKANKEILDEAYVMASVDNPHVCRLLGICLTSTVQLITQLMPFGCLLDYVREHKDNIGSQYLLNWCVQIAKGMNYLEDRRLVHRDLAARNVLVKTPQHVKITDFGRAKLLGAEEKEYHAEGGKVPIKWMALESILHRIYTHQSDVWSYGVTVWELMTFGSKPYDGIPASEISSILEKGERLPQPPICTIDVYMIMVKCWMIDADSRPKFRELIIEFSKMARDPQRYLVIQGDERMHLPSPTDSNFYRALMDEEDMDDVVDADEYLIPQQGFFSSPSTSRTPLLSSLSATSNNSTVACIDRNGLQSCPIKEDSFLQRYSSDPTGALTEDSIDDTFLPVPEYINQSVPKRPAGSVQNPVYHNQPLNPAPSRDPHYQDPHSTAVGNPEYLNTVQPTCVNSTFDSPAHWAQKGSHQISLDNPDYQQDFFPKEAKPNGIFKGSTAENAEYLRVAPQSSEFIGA
# In short: as §1
# SRPK1(h) = SRPK1(h) (Homo sapiens, UniProt Q96SB4)
# Chain of SRPK1(h) (Q96SB4 whole entry): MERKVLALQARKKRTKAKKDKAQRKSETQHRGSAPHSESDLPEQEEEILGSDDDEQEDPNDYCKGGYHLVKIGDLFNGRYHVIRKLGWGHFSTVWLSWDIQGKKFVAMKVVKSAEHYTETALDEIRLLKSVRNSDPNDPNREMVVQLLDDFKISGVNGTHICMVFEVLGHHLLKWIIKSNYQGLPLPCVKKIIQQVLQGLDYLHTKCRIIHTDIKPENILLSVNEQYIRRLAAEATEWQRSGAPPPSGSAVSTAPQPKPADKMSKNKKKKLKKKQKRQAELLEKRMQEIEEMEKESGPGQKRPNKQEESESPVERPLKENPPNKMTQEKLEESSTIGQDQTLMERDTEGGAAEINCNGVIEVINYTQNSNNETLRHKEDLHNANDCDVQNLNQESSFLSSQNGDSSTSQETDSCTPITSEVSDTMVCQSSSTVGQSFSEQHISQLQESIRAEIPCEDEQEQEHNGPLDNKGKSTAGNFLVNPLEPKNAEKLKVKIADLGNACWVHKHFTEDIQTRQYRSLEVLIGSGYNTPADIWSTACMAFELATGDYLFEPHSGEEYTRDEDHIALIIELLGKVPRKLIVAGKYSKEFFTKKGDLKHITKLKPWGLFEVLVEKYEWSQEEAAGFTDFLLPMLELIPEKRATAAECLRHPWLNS
# In short: as §1
# Abl(T315I)(h) = biological target: T3, Abl(T315I)(h) (Homo sapiens, UniProt P00519, T315I)
# T3 construct: gene ABL1
# In short: as §1
# IRAK4(h) = biological target: T4, IRAK4(h) (Homo sapiens, UniProt Q9NWZ3)
# T4 sequence (Q9NWZ3 1-460): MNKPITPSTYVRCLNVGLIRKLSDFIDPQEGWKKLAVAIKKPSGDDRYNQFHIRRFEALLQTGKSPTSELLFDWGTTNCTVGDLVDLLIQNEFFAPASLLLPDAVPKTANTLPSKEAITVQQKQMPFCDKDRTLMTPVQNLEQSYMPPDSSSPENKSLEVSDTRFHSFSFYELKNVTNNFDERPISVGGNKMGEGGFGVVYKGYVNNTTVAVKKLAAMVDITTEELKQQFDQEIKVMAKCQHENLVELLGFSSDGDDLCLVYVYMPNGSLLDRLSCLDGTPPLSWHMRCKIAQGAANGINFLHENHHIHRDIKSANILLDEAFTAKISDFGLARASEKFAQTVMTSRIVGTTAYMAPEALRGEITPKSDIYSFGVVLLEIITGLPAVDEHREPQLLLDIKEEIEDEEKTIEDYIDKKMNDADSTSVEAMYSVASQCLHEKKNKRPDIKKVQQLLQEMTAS
# In short: as §1
# [1] = biological target: T5, PI3 Kinase (p110a/p85a)(m) (Mus musculus, UniProt P42337)
# T5 construct: gene Pik3ca
# In short: as §1
# CDK17/cyclinY(h) = CDK17/cyclinY(h) (Homo sapiens, UniProt Q00537)
# Chain of CDK17/cyclinY(h) (Q00537 whole entry): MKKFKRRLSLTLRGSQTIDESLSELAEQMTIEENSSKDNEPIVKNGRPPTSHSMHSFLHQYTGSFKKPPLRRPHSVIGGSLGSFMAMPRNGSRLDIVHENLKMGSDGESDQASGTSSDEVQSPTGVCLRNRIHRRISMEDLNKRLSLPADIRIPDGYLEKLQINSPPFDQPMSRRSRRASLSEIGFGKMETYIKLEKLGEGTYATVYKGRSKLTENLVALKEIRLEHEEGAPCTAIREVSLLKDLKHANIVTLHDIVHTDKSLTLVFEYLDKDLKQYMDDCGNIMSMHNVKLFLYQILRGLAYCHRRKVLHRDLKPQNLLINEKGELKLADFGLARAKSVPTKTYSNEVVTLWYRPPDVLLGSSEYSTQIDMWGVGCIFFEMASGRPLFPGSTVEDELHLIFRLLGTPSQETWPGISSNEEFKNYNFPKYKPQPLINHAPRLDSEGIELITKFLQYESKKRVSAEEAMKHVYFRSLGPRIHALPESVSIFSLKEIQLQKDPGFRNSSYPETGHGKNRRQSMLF
# Chain of CDK17/cyclinY(h) (Q8ND76 whole entry partner): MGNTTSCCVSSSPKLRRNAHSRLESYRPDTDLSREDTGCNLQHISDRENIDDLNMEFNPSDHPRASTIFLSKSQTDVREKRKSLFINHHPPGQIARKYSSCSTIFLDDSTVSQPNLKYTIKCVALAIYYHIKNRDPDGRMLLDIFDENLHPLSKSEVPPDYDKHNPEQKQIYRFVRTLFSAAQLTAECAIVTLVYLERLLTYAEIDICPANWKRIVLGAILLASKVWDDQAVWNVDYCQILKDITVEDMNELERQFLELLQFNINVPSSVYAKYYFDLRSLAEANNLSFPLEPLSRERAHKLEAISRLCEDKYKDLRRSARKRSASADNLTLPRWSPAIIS
# In short: as §1
# MOK(h) = biological target: T6, MOK(h) (Homo sapiens, UniProt Q9UQ07)
# T6 sequence (Q9UQ07 1-419): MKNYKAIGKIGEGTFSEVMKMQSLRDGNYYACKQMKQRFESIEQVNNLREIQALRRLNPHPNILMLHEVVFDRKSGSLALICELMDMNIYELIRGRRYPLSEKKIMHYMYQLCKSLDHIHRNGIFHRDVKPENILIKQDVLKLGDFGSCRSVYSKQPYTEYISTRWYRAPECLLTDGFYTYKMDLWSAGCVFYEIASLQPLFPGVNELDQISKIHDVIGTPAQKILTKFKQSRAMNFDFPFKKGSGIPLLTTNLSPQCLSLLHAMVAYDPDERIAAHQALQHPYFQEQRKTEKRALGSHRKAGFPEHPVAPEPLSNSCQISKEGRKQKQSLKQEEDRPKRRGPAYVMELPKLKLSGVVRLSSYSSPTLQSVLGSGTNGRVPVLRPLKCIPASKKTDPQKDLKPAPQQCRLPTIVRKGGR
# In short: as §1
# [2] = read-out: Residual activity (%) Spautin-1 5aa
# [3] = read-out: Residual activity (%) 5as
# [4] = read-out: Residual activity (%) 5at
# [5] = read-out: Residual activity (%) 5ay
smiles,measurement,setting,value
"Fc1ccc(CNc2ncnc3ccc(F)cc23)cc1 [5aa, 6-Fluoro-N-(4-fluorobenzyl)-4-Quinazolinamine]",remaining activity at 10 µM,MAPKAP-K2(h); [2],79%
same,remaining activity at 10 µM,"EGFR(T790M,L858R)(h); [2]",96%
same,remaining activity at 10 µM,ULK3(h); [2],96%
same,remaining activity at 10 µM,EGFR(L858R)(h); [2],23%
same,remaining activity at 10 µM,SRPK1(h); [2],121%
same,remaining activity at 10 µM,Abl(T315I)(h); [2],73%
same,remaining activity at 10 µM,IRAK4(h); [2],96%
same,remaining activity at 10 µM,[1]; [2],86%
same,remaining activity at 10 µM,CDK17/cyclinY(h); [2],82%
same,remaining activity at 10 µM,MOK(h); [2],89%
"Fc1ccc(CCNc2ncnc3ccc(F)cc23)cc1 [5as, 6-Fluoro-N-[2-(4-Fluorophenyl)Ethyl]-4-Quinazolinamine]",remaining activity at 10 µM,MAPKAP-K2(h); [3],85%
same,remaining activity at 10 µM,"EGFR(T790M,L858R)(h); [3]",93%
same,remaining activity at 10 µM,ULK3(h); [3],92%
same,remaining activity at 10 µM,EGFR(L858R)(h); [3],37%
same,remaining activity at 10 µM,SRPK1(h); [3],112%
same,remaining activity at 10 µM,Abl(T315I)(h); [3],101%
same,remaining activity at 10 µM,IRAK4(h); [3],92%
same,remaining activity at 10 µM,[1]; [3],83%
same,remaining activity at 10 µM,CDK17/cyclinY(h); [3],80%
same,remaining activity at 10 µM,MOK(h); [3],86%
"Fc1ccc2ncnc(NCCc3ccc(Cl)cc3)c2c1 [5at, N-[2-(4-Chlorophenyl)Ethyl]-6-Fluoro-4-Quinazolinamine]",remaining activity at 10 µM,MAPKAP-K2(h); [4],97%
same,remaining activity at 10 µM,"EGFR(T790M,L858R)(h); [4]",85%
same,remaining activity at 10 µM,ULK3(h); [4],93%
same,remaining activity at 10 µM,EGFR(L858R)(h); [4],60%
same,remaining activity at 10 µM,SRPK1(h); [4],108%
same,remaining activity at 10 µM,Abl(T315I)(h); [4],80%
same,remaining activity at 10 µM,IRAK4(h); [4],103%
same,remaining activity at 10 µM,[1]; [4],82%
same,remaining activity at 10 µM,CDK17/cyclinY(h); [4],88%
same,remaining activity at 10 µM,MOK(h); [4],100%
"COc1ccc2ncnc(Nc3cccc(F)c3)c2c1 [5ay, N-(3-Fluorophenyl)-6-Methoxy-4-Quinazolinamine]",remaining activity at 10 µM,MAPKAP-K2(h); [5],80%
same,remaining activity at 10 µM,"EGFR(T790M,L858R)(h); [5]",69%
same,remaining activity at 10 µM,ULK3(h); [5],90%
same,remaining activity at 10 µM,EGFR(L858R)(h); [5],3%
same,remaining activity at 10 µM,SRPK1(h); [5],116%
same,remaining activity at 10 µM,Abl(T315I)(h); [5],91%
same,remaining activity at 10 µM,IRAK4(h); [5],60%
same,remaining activity at 10 µM,[1]; [5],84%
same,remaining activity at 10 µM,CDK17/cyclinY(h); [5],74%
same,remaining activity at 10 µM,MOK(h); [5],65%
